In the Deep4Chem optical property database:
Each block holds one compound with its values, some of them ahead of it.

Experiment: solvent given as SMILES

fluorescence lifetime (in ClCCl): 13.2 ns
SMILES: CCN(CC)c1ccc2cc(-c3nc4ccccc4n3-c3ccccc3)c(=O)oc2c1

SMILES: O=C1CCCC2=C1CC1=C(CCCC1=O)N2NC(=O)c1ccc(O)cc1
fluorescence lifetime (in CC#N): 6.2 ns
fluorescence lifetime (in CC(C)=O): 5.6 ns
fluorescence lifetime (in CCCCCO): 6.5 ns
fluorescence lifetime (in CO): 4.8 ns
fluorescence lifetime (in ClC(Cl)Cl): 8.2 ns
fluorescence lifetime (in ClCCl): 5.4 ns

fluorescence lifetime (in ClCCl): 6.4 ns
SMILES: F[B-]1(F)n2c(c3cccc4cccc2c43)=Nc2cccc(Cl)[n+]21

SMILES: N#Cc1cc(N2c3ccccc3Sc3ccccc32)c(N2c3ccccc3Sc3ccccc32)cc1C#N
fluorescence lifetime (in c1ccc2c(c1)c1ccccc1n2-c1ccc(-c2ccc(-n3c4ccccc4c4ccccc43)cc2)cc1): 48.2 ns

fluorescence lifetime (in CCCCCC): 67.8 ns
fluorescence lifetime (in CO): 132 ns
fluorescence lifetime (in ClCCl): 79.1 ns
SMILES: Cc1ccc2ccc3cccc4ccc1c2c34

SMILES: CCCCCCCCCCCCOc1ccc(C#Cc2ccc(C#Cc3ccc(OCCCCCCCCCCCC)c(OCCCCCCCCCCCC)c3)c3nc4c5ccccc5c5ccccc5c4nc23)cc1OCCCCCCCCCCCC
fluorescence lifetime (in C1CCOC1): 8.22 ns
fluorescence lifetime (in Cc1ccccc1): 7.13 ns
fluorescence lifetime (in ClCCl): 8.62 ns

fluorescence lifetime (in CC#N): 0.93 ns
SMILES: COc1cccc(/C=C/c2ccccc2)c1

fluorescence lifetime (in ClCCl): 0.3 ns
SMILES: CC1=C(c2ccc(N(c3ccccc3)c3ccccc3)cc2)C(C)=[N+]2C1=C(c1c(-c3ccccn3)nc3ccccn13)c1c(C)c(-c3ccc(N(c4ccccc4)c4ccccc4)cc3)c(C)n1[B-]2(F)F

fluorescence lifetime (in ClCCl): 5 ns
SMILES: CC(C)(C)c1ccc2c(c1)sc1[n+]2[B-](F)(F)n2c(c3cccc4c(Br)ccc2c43)=N1

fluorescence lifetime (in C1CCCCC1): 3.8 ns
fluorescence lifetime (in CC#N): 6.9 ns
SMILES: C=Cc1cc(OC)cc(OC)c1

SMILES: CN(C)c1ccc(/C=C/C(=C(C#N)C#N)c2ccc3c4c(cccc24)CC3)cc1
fluorescence lifetime (in C1CCOC1): 5.2 ns
fluorescence lifetime (in CC#N): 2.25 ns
fluorescence lifetime (in CC(C)=O): 3.84 ns
fluorescence lifetime (in CCOC(C)=O): 4.98 ns
fluorescence lifetime (in CN(C)C=O): 3.31 ns
fluorescence lifetime (in CO): 2.85 ns
fluorescence lifetime (in Cc1ccccc1): 3.92 ns
fluorescence lifetime (in ClC(Cl)Cl): 4.27 ns

fluorescence lifetime (in C1CCCCC1): 3.3 ns
fluorescence lifetime (in CC#N): 3.8 ns
fluorescence lifetime (in ClCCl): 3.4 ns
SMILES: O=S1(=O)c2ccccc2-c2cc(-c3c4ccccc4cc4ccccc34)ccc21

fluorescence lifetime (in ClCCl): 1.36 ns
SMILES: COC(=O)c1cc(=O)n(C)c2cc(-c3cc(OC)c(OC)c(OC)c3)sc12

fluorescence lifetime (in CC#N): 12.1 ns
fluorescence lifetime (in ClCCl): 0.78 ns
SMILES: Cc1cc(-c2ccccc2)cc(C)[o+]1

SMILES: O=C1c2ccccc2C(=O)c2cc(-c3ccc(N(c4ccccc4)c4ccccc4)cc3)ccc21
fluorescence lifetime (in CCCCCC): 5.51 ns
fluorescence lifetime (in CCOC(C)=O): 0.15 ns
fluorescence lifetime (in CCOCC): 2.81 ns
fluorescence lifetime (in Cc1ccccc1): 6.79 ns
fluorescence lifetime (in ClC(Cl)(Cl)Cl): 8.82 ns

fluorescence lifetime (in C1CCOC1): 6.9 ns
SMILES: C[Si](C)(C)c1ccc(-c2ccc(-c3ccc(-c4ccc(-c5ccc([Si](C)(C)C)cc5)s4)c4nsnc34)s2)cc1

SMILES: Cc1ccccc1C
fluorescence lifetime (in C1CCCCC1): 51 ns

SMILES: BrCCCCCCCCCCCCOc1cc2ccc3cccc4ccc(c1)c2c34
fluorescence lifetime (in Cc1ccccc1): 60 ns

fluorescence lifetime (in ClCCl): 7.8 ns
SMILES: N#CC1=c2c3cccc4c(Br)ccc(c43)n2[B-](F)(F)[n+]2ccccc21

fluorescence lifetime (in C1CCCCC1): 20 ns
SMILES: Cc1ccc(-c2ccccc2)cc1

fluorescence lifetime (in ClCCl): 1.8 ns
SMILES: CC(C)(C)c1ccc2c(c1)c1cc(C(C)(C)C)ccc1n2-c1ccc(-c2ccc3c(c2)C2(c4cc(-c5ccc(-n6c7ccc(C(C)(C)C)cc7c7cc(C(C)(C)C)ccc76)cc5)ccc4-3)c3ccccc3S(=O)(=O)c3ccccc32)cc1

fluorescence lifetime (in CC#N): 12.8 ns
SMILES: O=C1c2ccccc2C2=C(c3ccccn3)NN=C(c3ccccn3)C2c2ccccc21 (stereo unspecified)

fluorescence lifetime (in CC#N): 5.22 ns
fluorescence lifetime (in CO): 5.23 ns
fluorescence lifetime (in O): 5.38 ns
SMILES: N#Cc1cc(-c2ccc(F)cc2)cnc1O

fluorescence lifetime (in ClC(Cl)Cl): 2.4 ns
SMILES: c1ccc(-c2nc(-c3ccc(N4CCCC4)cc3)cc(-c3ccc4ccccc4c3)n2)cc1

fluorescence lifetime (in CC#N): 0.55 ns
SMILES: c1cc2c3c(cccc3c1)C(N1CCOCCOCCOCCOCC1)=N2

fluorescence lifetime (in C1CCOC1): 1.29 ns
fluorescence lifetime (in CC#N): 1.29 ns
fluorescence lifetime (in CN(C)C=O): 1.38 ns
fluorescence lifetime (in ClC(Cl)Cl): 1.36 ns
fluorescence lifetime (in c1ccccc1): 1.45 ns
SMILES: COc1ccc(C#Cc2ccc(C#Cc3ccc(C#Cc4ccccc4C#N)cc3C#N)cc2C#N)cc1

fluorescence lifetime (in CCO): 1.82 ns
SMILES: Cc1cc(-c2nnc(-c3ccccc3)o2)ccc1-n1c2ccccc2c2ccccc21

SMILES: COC(=O)/C(C#N)=c1/cc/c(=c2/cc/c(=C(\C#N)C(=O)OC)s2)s1
fluorescence lifetime (in Cc1ccccc1): 0.016 ns

fluorescence lifetime (in ClCCl): 2.7 ns
SMILES: CCN(CC)c1ccc2cc(C#N)c(=O)oc2c1

fluorescence lifetime (in CN(C)C=O): 4.1 ns
SMILES: NCCCCCCCCCCCCN1C(=O)c2ccc3c4ccc5c6c(ccc(c7ccc(c2c37)C1=O)c64)C(=O)N(CCCCCCCCCCCCN)C5=O

fluorescence lifetime (in CC#N): 2.5 ns
SMILES: O=C(O)c1ccc(-c2nc(-c3ccccc3)c3c4ccccc4ccn23)cc1

fluorescence lifetime (in CC(C)O): 0.66 ns
fluorescence lifetime (in CCO): 0.565 ns
fluorescence lifetime (in CO): 0.5 ns
fluorescence lifetime (in O): 0.115 ns
SMILES: O=C([O-])c1ccccc1-c1c2cc(I)c(=O)c(I)c-2oc2c(I)c([O-])c(I)cc12

fluorescence lifetime (in CC#N): 2.06 ns
SMILES: COc1cc2cc(/C=C/c3ccc(/C=C(\C#N)C(=O)O)cc3)c(=O)oc2cc1OC
